Laboratory results as given in article PMC12423301, “Astrocytic monoamine oxidase B (MAOB)–gamma-aminobutyric acid (GABA) axis as a molecular brake on repair following spinal cord injury” (Signal Transduction and Targeted Therapy, 2025).
Where two headings read alike, the source gives them in different places.

Columns and labels:
[1] = Preclinical pharmacokinetics in mice; assay type: in vivo, mouse
[2] = system: rat SCI model; test: BBB locomotor test in rat SCI model; assay type: in vivo, Sprague-Dawley (SD) rats; details: for average BBB score: at PI 10w
Method: For the establishment of the mouse and rat SCI models, we followed methods consistent with those of previous studies.[65]–[67] In mice, a laminectomy was performed at thoracic level 10 (T10), and self-closing forceps (11485-11, Fine Science Tools; 0.10 × 0.06 mm tip, 11 cm) were applied to the exposed spinal cord for 3 s to induce injury. In rats, a laminectomy was performed at thoracic level 9 (T9), followed by the application of the same self-closing forceps (11485-11, Fine Science Tools) for 10 s. Each “Sham” group or “SCI” group indicates animals operated by only laminectomy or SCI, respectively.
(S)-2-(((4’-Trifluoromethylbiphenyl-4-yl)methyl)amino)propanamide methane-sulfonate (KDS2010) was dissolved in distilled water. For SD rats, KDS2010 was administered via the drinking water ad libitum. […] To evaluate dose-dependent effects, additional groups received 20 mg/kg/day or 30 mg/kg/day starting at PI 2 weeks. To achieve consistent exposure across animals, we meticulously monitored the daily water intake and body weight of each rat throughout the study. As shown in the Extended Data (Supplementary Table 1), water consumption was calculated weekly via a formula based on body weight (e.g., d.w = weight × 0.09 at week 0; gradually tapering to weight × 0.075 by weeks 8–9). Importantly, all animals were confirmed to have consumed the entirety of the provided medicated water each day, ensuring full ingestion of the intended dose (10 mg/kg/day for the majority of groups, and 20/30 mg/kg/day for the dose-dependent experiments).
Behavioral test was performed every week for a total of 11 weeks (1 week before and 10 weeks after the surgical operation) to assess locomotor recovery. The BBB motor score[22] or BMS score[17] was used to evaluate the quality of hindlimb movement during open field locomotion in rats or mice, respectively. In the first recovery phase, the range of joint movement and the presence of the foot closure on the floor were checked. In the second phase, the recovery of weighted stepping was checked. In the third phase, gait coordination and tail movement were assessed. These scores are “ordinal and the magnitude of behavioral change between ranks may not be consistent,” as originally described.[17] To perform the group allocation in a blinded manner during data collection, animal preparation and behavior tests were performed by at least two different investigators.
In the BBB locomotor test with drug administration beginning at PI 2w, the animals were initially subjected to injury, and then divided into two groups at PI 2w based on the basis of similar averaged BBB scores. Subsequently, these groups were treated with either the vehicle (SCI + V) or the drug (SCI+drug) from PI 2w. To exclude incompletely generated severe rat SCI animals, we established the following criteria: a score difference of more than 4 between PI 1w and 2w, and a score exceeding 8 at PI 2w.

[3] = human
Method: Protocol No. NB_KDS_ADP1_21 Confidential
Therapeutics in Adult Healthy Volunteers), with considering the safety factor and the result of the rat that […]
from the NOAEL calculated in the 4-week repeated toxicity test for rats and cynomolgus monkeys, the maximum recommended starting dose (MRSD) was calculated. As a result of converting 0.484 mg/kg, a value obtained by dividing this by the safety factor of 10, into a dose for a healthy adult weighing 60 kg, the MRSD was calculated to be 29.04 mg, and the initial administration dose was set to 30 mg. As a result of a single oral dose toxicity test in rats, 700 mg/kg was reported as a maximum tolerated dose (MTD), and it was calculated as 6774.2 mg/60kg when converted to a human equivalent dose (HED). Therefore, the set maximum dose is expected to be suitable in terms of safety.
Species NOAEL HED factor (Safety factor factor (Safety factor 1/30) […]
5.2.2. Duration of Dosing and Timepoints of Blood samplings/Urine collections
6 hours. In addition, considering that the Tmax of selegiline (ZELAPAR®) and safinamide (XADAGO®), which are similar drugs, are 0.75 hours and 1.83 to 2.83 hours, respectively, pharmacokinetic blood samplings before the estimated Tmax (about 2 hours) were included at 3 or more time points, and the pharmacokinetic blood […]

[4] = set-up: method as in PMID 30906861; details: cited from earlier work
[5] = system: Alzheimer’s disease mouse model; details: cited from earlier work
[6] = ICR mouse, 5 mg/kg single intravenous administration
[7] = in vivo, APP/PS1 mouse, 1 mg/kg single oral administration
[8] = in vivo, APP/PS1 mouse, 10 mg/kg single oral administration
[9] = in vivo, ICR mouse, 5 mg/kg single intravenous administration
[10] = in vivo, ICR mouse, 5 mg/kg single oral administration
[11] = in vivo, ICR mouse, 10 mg/kg single oral administration
[12] = in vivo, ICR mouse, 30 mg/kg single oral administration

With `CS(=O)(=O)O.C[C@H](NCc1ccc(-c2ccc(C(F)(F)F)cc2)cc1)C(N)=O` [KDS2010, (S)-2-(((4’-Trifluoromethylbiphenyl-4-yl)methyl)amino)propanamide methane-sulfonate] the CL/F [1, 6] was 28.47 ± 1.37 mL/min/kg, the Vd/F [1, 6] was 10.439 ± 0.682 L/kg and the AUC(0-inf) [1, 7] was 1130 ± 173 ng·h/mL. It also gave a half-life [1, 7] of 4.76 ± 0.43 h, a CL/F ([1]; in vivo, APP/PS1 mouse, 1 mg/kg single oral administration, read-out: CL/F (converted)) of 15 mL/min/kg and a Vd/F ([1]; in vivo, APP/PS1 mouse, 1 mg/kg single oral administration, read-out: Vd/F) of 6.13 ± 0.767 L/kg. The AUC(0-inf) [1, 8] was 12900 ± 740 ng·h/mL, the half-life [1, 8] was 5.7 ± 0.7 h and the CL/F ([1]; in vivo, APP/PS1 mouse, 10 mg/kg single oral administration, read-out: CL/F (converted)) was 14.3 mL/min/kg. For the same compound, the Vd/F ([1]; in vivo, APP/PS1 mouse, 10 mg/kg single oral administration, read-out: Vd/F) was 7.01 ± 0.934 L/kg, the AUC(0-inf) [1, 9] was 3590 ± 71.7 ng·h/mL and the half-life [1, 9] was 4.2 ± 0.2 h. The AUC(0-inf) [1, 10] was 4180 ± 100 ng·h/mL, the half-life [1, 10] was 4.2 ± 0.1 h and the CL/F ([1]; in vivo, ICR mouse, 5 mg/kg single oral administration, read-out: CL/F (converted)) was 18 mL/min/kg. For the same compound, the Vd/F ([1]; in vivo, ICR mouse, 5 mg/kg single oral administration, read-out: Vd/F) was 6.6 ± 0.38 L/kg, the AUC(0-inf) [1, 11] was 7920 ± 457 ng·h/mL and the half-life [1, 11] was 4.4 ± 0.2 h. The CL/F ([1]; in vivo, ICR mouse, 10 mg/kg single oral administration, read-out: CL/F (converted)) was 22 mL/min/kg, the Vd/F ([1]; in vivo, ICR mouse, 10 mg/kg single oral administration, read-out: Vd/F) was 8.41 ± 0.843 L/kg and the AUC(0-inf) [1, 12] was 27100 ± 1090 ng·h/mL. For the same compound, the half-life [1, 12] was 4.3 ± 0.4 h, the CL/F ([1]; in vivo, ICR mouse, 30 mg/kg single oral administration, read-out: CL/F (converted)) was 14.5 mL/min/kg and the Vd/F ([1]; in vivo, ICR mouse, 30 mg/kg single oral administration, read-out: Vd/F) was 5.45 ± 0.512 L/kg. For the same compound, the BBB locomotor scores ([2]; 10, 20, and 30 mpk from subacute phase, at 10w PI) was “dose-dependent improvement”, the “average BBB score” value ([2]; SCI + KDS 2w: 10 mg/kg/day in drinking water from PI 2w (subacute)) was 10.62 and the “recovery in BBB locomotor test and ladder rung test” value ([2]; SCI + KDS 6w: 10 mpk from chronic phase (PI 6w)) was “significant motor recovery”. The “average BBB score” value ([2]; SCI + KDS 1 d/Re: 10 mpk from acute phase (PI 1 d), recovery subgroup) was 15.36, the “behavioral recovery in BBB locomotor test” value ([2]; SCI+KDS1d/No: 10 mpk from acute phase, no-recovery subgroup) was “did not show any behavioral recovery” and the “pharmacologically active dose (PAD)” value ([2]; SD rats, for 8 weeks) was 10 mpk. The half-life [3] was about 36 h, the “permeability across the blood‒brain barrier” value [4] was “highly permeable” and the “learning and memory impairment” value [5] was “reverse learning and memory impairment”.
